Measurements published in EP0107306A1, “Imidazoline derivatives” (BEECHAM GROUP PLC, priority 1982, dated 1984).
Counter-ions that a name gives are not always drawn. Marks after values point to notes of the source that are not given here.

System: E coli B44 (09:K90:K99)
Test: Protection of neonatal mice from lethal enteropathogenic E coli infection
Format: in vivo
Details: 4 day old mice orally infected; for % Protection by drug: mortality in drug group compared with placebo group
Procedure: 4 day old mice were orally dosed with 50pl of phosphate buffered saline containing 1 x 10^5 organisms/ml of E coli B44 (09:K90:K99) an enteropathogenic strain originally isolated from a scouring calf. The mice were then dosed b.i.d. with either placebo or drug for four days commencing 16 hours after infection. The animals were left with their mothers throughout the experiment and a daily record of deaths was made. The experiment was terminated when no mortality was seen over a 24 hour period. (Usually 7-10 days after infection). The mortality in the drug group was then compared with the mortality in the placebo group using the following formula:- [formula]
where Mp = mortality in group receiving placebo Md = mortality in group receiving drug
Statistical analysis was performed using 2 x 2 contingency tables (single tailed 'p').

[1] = drug 10mg/kg b.i.d. for four days commencing 16 hours after infection
[2] = drug 10mg/kg b.i.d. for four days

SMILES	% Mortality [1]	No of mice dead after 10 days [1]	% Protection by drug [2]	% Mortality (drug 50mg/kg b.i.d. for four days commencing 16 hours after infection)	No of mice dead after 10 days (drug 50mg/kg b.i.d. for four days commencing 16 hours after infection, 68 mice infected)	% Protection by drug (drug 50mg/kg b.i.d. for four days)
CC[N+](CC)(CC)Cc1cc(Cl)c(N=C2NCCN2)c(Cl)c1 [Example I, 2,(2,6-Dichloro-4-triethylammoniomethylphenylimino)-imidazolidine bromide]	32%	22	40* %	29%	20	46* %
C[N+](C)(C)Cc1cc(Cl)c(N=C2NCCN2)c(Cl)c1 [Example 6, 2-(2,6-Dichloro-4-trimethylammoniomethylphenylimino)-imidazolidine bromide Hydrobromide.]	71%	52	15%	–	–	–
